Numbered stars: 1 amine (or outer) side, 2 acyl side, 3 side chain; on linkers, the order of the positions; unused ones are H or OH. Bridge positions count the residues as written; N and C are the ends. Square brackets hold non-standard residues; d marks the D form. Peptide text beside a SMILES is read from it. ξ: configuration not given here. ξαMeNle(6-ylidene) = CC(CCCC=[*:3])(N[*:1])C(=O)[*:2]; Nle = CCCC[C@H](N)C(=O)O
Legend:
[1] = molecular target: T1, β-catenin-BCL9/B9L complexes (Homo sapiens, UniProt P35222); test: Anti-BCL9 and B9L co-immunoprecipitation (disruption of native complexes); format: cell-based; details: cellular treatment
T1 construct: SAH-BCL9B disrupts native β-catenin-BCL9/B9L complexes; endogenous in cells; Colo320 or MM1S by context
T1 sequence (P35222 2-781): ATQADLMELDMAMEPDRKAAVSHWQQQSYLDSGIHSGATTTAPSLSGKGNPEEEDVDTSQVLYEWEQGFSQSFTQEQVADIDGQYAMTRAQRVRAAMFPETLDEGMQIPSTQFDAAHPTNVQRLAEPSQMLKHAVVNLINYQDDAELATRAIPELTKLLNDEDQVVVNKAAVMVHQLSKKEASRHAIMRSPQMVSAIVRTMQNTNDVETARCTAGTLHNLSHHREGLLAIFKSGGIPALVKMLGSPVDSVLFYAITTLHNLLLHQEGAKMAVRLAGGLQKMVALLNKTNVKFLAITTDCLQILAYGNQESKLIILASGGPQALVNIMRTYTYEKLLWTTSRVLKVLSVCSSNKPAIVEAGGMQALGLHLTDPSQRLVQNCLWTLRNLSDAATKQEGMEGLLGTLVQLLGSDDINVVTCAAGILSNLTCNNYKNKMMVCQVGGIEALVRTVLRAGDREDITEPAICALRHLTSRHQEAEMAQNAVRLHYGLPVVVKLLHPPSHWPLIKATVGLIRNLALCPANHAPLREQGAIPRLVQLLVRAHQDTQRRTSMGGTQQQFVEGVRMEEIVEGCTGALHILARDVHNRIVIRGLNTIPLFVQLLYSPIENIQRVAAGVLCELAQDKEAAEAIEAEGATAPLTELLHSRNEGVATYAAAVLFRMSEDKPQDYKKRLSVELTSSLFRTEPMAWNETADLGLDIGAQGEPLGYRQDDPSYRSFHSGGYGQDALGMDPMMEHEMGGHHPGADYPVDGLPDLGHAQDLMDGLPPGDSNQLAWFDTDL
Description: Western blotting, performed as described (Sukhdeo, K. et al. Proc Natl Acad Sci USA 104, 7516-21 (2007)), employed the following primary antibodies: BCL9 (6109) (Mani, M. et al. Cancer Res 69, 7577-86 (2009)), BCL9 (ab37305, Abcam), B9L (AF4967, R&D Systems), β-catenin (CAT5-H10, Zymed), FITC (ab19224, Abcam), Actin-HRP (C-11, Santa Cruz), Caspase3 (#9662, Cell Signaling), IκBα (#9242, Cell signaling), PARP (#9542, Cell Signaling), E-cadherin (#3195, Cell Signaling), and Lamin B (sc-6217, Santa Cruz). Horseradish peroxidase conjugated secondary antibodies were purchased from Santa Cruz and SouthernBiotech. Co-immunoprecipitation was performed as described (Walensky, L. D. et al. Science 305, 1466-70 (2004)). Briefly, cells were lysed in 50 mM Tris, 150 mM NaCl, and 1% CHAPS buffer containing protease and phosphatase inhibitors. Lysates were precleared with Protein A/G PLUS-agarose beads (Santa Cruz Biotechnologies) for 3 hours followed by overnight incubation at 4° C. with the respective antibodies. Agarose A/G beads were then added for 4 h, pelleted, and washed as described (Walensky, L. D. et al. Science 305, 1466-70 (2004)). See results in FIG. 1D, FIG. 1H, FIG. 2A, FIG. 8.

Colo320 cells = test: Cellular invasion assay, Matrigel Boyden chambers; format: cell-based; details: 5 μM
Experimental: Angiogenesis was evaluated as previously described (Mani, M. et al. Cancer Res 69, 7577-86 (2009)) using an in vitro angiogenesis assay kit (Millipore). For capillary tube formation analysis, HUVEC were cultured on polymerized matrix gel and exposed to supernatant media collected from Colo320 or MM1S cells treated with vehicle (0.5% DMSO), SAH-BCL9B peptides (5 μM) for 24 h. The number of capillary tubes formed after 5 h treatment at 37° C. was determined by counting 5 randomly selected fields at 40× magnification, according to manufacture's instructions. HUVEC cultured in VEGF media and VEGF-free media were used as positive and negative controls, respectively. Cellular invasion assays were performed using Matrigel Boyden chambers (BD Biosciences) as described (Mani, M. et al. Cancer Res 69, 7577-86 (2009)). The reported data represent the average of three independent experiments performed in triplicate. See results in FIG. 3H-FIG. 3I.

Compound | disruption of the association of β-catenin with BCL9 and B9L [1] | migration through Matrigel Boyden chambers (Colo320 cells)
CCCC[C@H](NC(=O)[C@H](CCCNC(=N)N)NC(=O)[C@H](CCC(N)=O)NC(=O)[C@@H](NC(=O)C1(C)CCCC=CCCCC(C)(NC(=O)[C@H](CC(C)C)NC(=O)[C@H](CO)NC(=O)[C@H](CCCNC(=N)N)NC(=O)[C@H](CCC(=O)O)NC(=O)[C@H](CCCNC(=N)N)NC(=O)[C@H](Cc2c[nH]cn2)NC(=O)[C@H](CCC(=O)O)NC(=O)[C@H](CC(C)C)NC(=O)[C@H](CCC(N)=O)NC(=O)[C@H](CCC(=O)O)NC(=O)[C@H](CCC(N)=O)NC(=O)[C@H](CO)NC(=O)[C@H](CC(C)C)NC(C)=O)C(=O)N[C@@H]([C@@H](C)O)C(=O)N[C@@H](CC(C)C)C(=O)N[C@@H](CCCNC(=N)N)C(=O)N1)[C@@H](C)CC)C(=O)N[C@@H](CC(C)C)C(=O)N[C@@H](Cc1ccccc1)C(N)=O (stereo partly shown) [SAH-BCL9B] (Ac-LSQEQLEHRERSL[ξαMeNle(6-ylidene)]TLR[ξαMeNle(6-ylidene)]IQR[Nle]LF-NH2; staple 14-18) | dose-responsively disrupted | blocked the migration
SAH-BCL9B(R359E): SEQ ID NO: 7: LSQEQLEHEERSLXTLRXIQRBLF; reverse polarity point mutant, negative control of SAH-BCL9B | no effect | no effect

From patent publication US12534501B2, “Targeting deregulated Wnt signaling in cancer using stabilized alpha-helices of BCL-9” (Dana-Farber Cancer Institute, Inc., priority 2011, dated 2026)
